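Exposure lasted 48 hours, with cells grown in 96-well plates and compounds tested at five concentrations. Abbreviation: GI50, concentration required for 50% inhibition of growth. The concentration for full growth arrest is given as TGI.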

What all share (experiment): NCI tumour cell line growth inhibition, 48 h
Assay [1] concerns K-562 leukemia.
Assay [2] deals with KM12 colon.
Assay [3] concerns SK-OV-3 ovarian.
Assay [4] has as its system MDA-MB-231 breast.
Assay [5] has as its system NCI-H460 lung.
For assay [6], the system named is HCC-2998 colon.
Assay [7] relates to M14 melanoma.
The test system of assay [8] is UACC-62 melanoma.
Assay [9] concerns NCI-H226 lung.
Assay [10] deals with DU-145 prostate.

Regarding `O=C(OCc1ncc(-c2ccc(C(F)(F)F)cc2)c(NC2CCCCCC2)n1)c1c(F)c(F)c(F)c(F)c1F`, the GI50 in [1] is 4.86 µM; in assay [2] it was 18.1 µM; in assay [3], 21.6 µM; in assay [4], 9.93 µM; in [5], 17.3 µM; in assay [6], 16.7 µM. Also, the GI50 is 17.3 µM in assay [7], 14.2 µM in assay [8], 5.59 µM in assay [9] and 12.5 µM in assay [10]. For the same compound, the TGI amounted to 30.2 µM in assay [1]; 42.5 µM in assay [2]; 39.1 µM in assay [3]; 23.2 µM in assay [4]; 40.1 µM in [5]; 32.7 µM in [6]. In addition, the TGI in [7] was 39.6 µM; in assay [8] it was 29.2 µM; in assay [9], 21.2 µM; in assay [10], 25.3 µM.
Take `OCC(O)c1nc2ccc3[nH]ncc3c2c2c1CCCC2` (stereo not given): the GI50 in assay [1] is 1.91 µM; in assay [2] it was 1.62 µM; in assay [3] it was 2.23 µM; in assay [4], 1.75 µM; in [5], 1.49 µM; in assay [6], 1.07 µM. The GI50 was 1.17 µM in [7], 0.96 µM in assay [8], 0.971 µM in assay [9] and 1.59 µM in [10]. The TGI in assay [1] is above 50 µM; in assay [2] it was above 50 µM; in [3], above 50 µM; in assay [4], above 50 µM; in [5], 5.43 µM; in assay [6], 2.89 µM. The TGI in [7] was 2.78 µM; in assay [8], 2.73 µM; in [9], 2.83 µM; in assay [10], above 50 µM.
With `O=C(O)C(Cl)(c1ccccc1)c1ccccc1`, the TGI in assay [1], in [2], in assay [3], in [4], in assay [5] and in assay [6] was above 100 µM each time. Moreover, the TGI in assay [7], in [8], in [9] and in assay [10] was above 100 µM each time.
As for `CC(C)(C)[Si](C)(C)OC1[C@@H](O[Si](C)(C)C(C)(C)C)[C@@H](CNC(=O)NC(=O)CCl)O[C@H]1n1cnc2c(NC(=O)Nc3ccccc3)ncnc21` (stereo not given in full), the GI50 in [1] is 1.09 µM; in assay [2], 1.04 µM; in assay [3], 0.799 µM; in assay [4], 0.507 µM; in [5] it was 0.859 µM; in assay [6], 0.967 µM. For the same compound, the GI50 in assay [7] was 0.978 µM; in [8], 0.793 µM; in assay [9] it was 0.651 µM; in assay [10], 1.73 µM. Further, the TGI in assay [1] amounted to 3.38 µM; in assay [2] it was 3.64 µM; in assay [3], 1.5 µM; in [4] it was 1.3 µM; in assay [5] it was 1.74 µM; in assay [6], 2.06 µM. In addition, the TGI in assay [7] was 1.98 µM; in assay [8], 1.6 µM; in [9] it was 1.3 µM; in assay [10], 5.32 µM.
`CCC(CNc1cc(OC)cc2cccnc12)NC1CCCCC1` (stereo not given): the GI50 in assay [1] was 7.68 µM; in assay [2], 27.6 µM; in [3] it was above 100 µM; in assay [4], 40.7 µM; in assay [5] it was 16.8 µM; in assay [6], 19.3 µM. Moreover, the GI50 is 17.1 µM in assay [7], 40.1 µM in assay [8], 86 µM in assay [9] and 35.5 µM in assay [10]. In addition, the TGI in assay [1] was 53.8 µM; in assay [2], above 100 µM; in [3], above 100 µM; in [4], above 100 µM; in assay [5], 41 µM; in [6], 41.4 µM. In addition, the TGI in assay [7] is 33.5 µM; in [8], above 100 µM; in assay [9] it was above 100 µM; in assay [10], above 100 µM.
Take `CCCCCCCCCCCCCCCCCC(=O)OCC(COC(=O)CCCN)OC(=O)CCCN` (stereo not given): the TGI in [1] is above 100 µM; in [2] it was 33.5 µM; in assay [3], 34.3 µM; in assay [4] it was 28.2 µM; in assay [5] it was 30.7 µM; in assay [6] it was 35.9 µM. The TGI came out at 31.4 µM in [7], 35.3 µM in assay [8], 44.4 µM in assay [9] and 33.7 µM in assay [10].
Take `COc1cccc(NC(=O)c2sc3nc4c(cc3c2N)C(=O)CCC4)c1`: the GI50 is 0.0513 µM in assay [1]; 0.0569 µM in assay [2]; 0.183 µM in assay [3]; 0.209 µM in assay [4]; 0.0953 µM in assay [5]; 0.279 µM in assay [6]. In addition, the GI50 was 0.0943 µM in assay [7], 0.0749 µM in assay [8], 2.18 µM in assay [9] and 0.231 µM in [10]. For the same compound, the TGI in [1] was above 100 µM; in [2], above 100 µM; in assay [3], above 78.1 µM; in assay [4], 7.59 µM; in assay [5], above 100 µM; in [6], above 100 µM. Further, the TGI in assay [7], in assay [8], in [9] and in assay [10] was above 100 µM throughout.

The values above are taken from PubChem BioAssay (NCI).
